{
  "source": "patent US11535597B2",
  "about": "“Photoreactive ligands and uses thereof” (The Scripps Research Institute, priority 2017, dated 2022)",
  "molecular_target": "PTGR2 (Homo sapiens, UniProt Q8N8N7)",
  "sequence (Q8N8N7 whole entry)": "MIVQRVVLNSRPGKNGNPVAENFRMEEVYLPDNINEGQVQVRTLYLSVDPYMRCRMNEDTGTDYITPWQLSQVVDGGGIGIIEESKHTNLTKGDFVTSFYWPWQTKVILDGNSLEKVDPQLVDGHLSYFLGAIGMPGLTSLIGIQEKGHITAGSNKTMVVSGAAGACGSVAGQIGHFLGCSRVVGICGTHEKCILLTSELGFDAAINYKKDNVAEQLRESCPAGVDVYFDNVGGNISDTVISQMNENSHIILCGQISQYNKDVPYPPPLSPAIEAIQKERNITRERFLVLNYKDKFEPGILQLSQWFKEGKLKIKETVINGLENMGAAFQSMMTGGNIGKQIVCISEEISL",
  "experiment": "MS-based (SILAC) competition of FFF probe 8 labeling of endogenous PTGR2 in HEK293T cells",
  "assay_type": "binding",
  "description": "For gel-based experiments, cells were grown in 6-well plates to ˜90% confluence at the time of treatment. Cells were carefully washed with Dulbecco's phosphate buffered saline (DPBS) and replenished with fresh serum-free media containing indicated FFF probe, and, if applicable, competitors or DMSO vehicle (1 mL). Following incubation at 37° C. for 30 min, cells were directly exposed to 365 nm light for 10 min. For no UV experiments, cells were incubated at 4° C. for 10 min under ambient light. For MS-based experiments, cell labeling was performed in a similar manner as described above. Modifications to this protocol included using isotopically ‘light’ and ‘heavy’ SILAC cells that were grown to near complete confluence prior to treatment in 10 cm plates. In probe-versus-control probe and probe-versus-probe experiments, isotopically light cells were treated with indicated fragment probe, while the heavy cells were treated with control probe (1), or additional FFF probe to be compared, at indicated concentrations. […]\nCells pellets were lysed in cold DPBS (100-500 µL) using a Branson Sonifier probe sonicator (10 pulses, 30% duty cycle, output setting=4). […] Protein concentration was determined using the DC Protein Assay (Bio-Rad) and absorbance read using a Tecan, Infinite F500 plate reader following manufacturer's instructions. […]",
  "data": [
    {"compound": "COc1ccccc1N1CCN(C(=O)Cc2ccccc2)CC1", "note": "[Compound 22, 1-(4-(2-Methoxyphenyl)piperazin-1-yl)-2-phenylethan-1-one]", "values": [
      {"measurement": "inhibition at 0.5 µM", "setting": "500 nM", "value": "~80", "unit": "%"},
      {"measurement": "inhibition of FFF 8 labeling of endogenous PTGR2", "setting": "5 μM", "value": "complete inhibition"}
    ]}
  ]
}
